Data from ChEMBL document CHEMBL5360560, “Anti-Vibrio potential of natural products from marine microorganisms” (Eur J Med Chem, 2023).
≈ marks a conversion by molar mass, not a printed value.

Columns and labels:
Vibrio rotiferianus [1] = test: Antibacterial activity against Vibrio rotiferianus MCCC E385 assessed as cell growth inhibition measured after 24 hrs by resazurin dye based assay; assay type: functional
Vibrio campbellii [2] = test: Antibacterial activity against Vibrio campbellii MCCC E333 assessed as cell growth inhibition measured after 24 hrs by resazurin dye based assay; assay type: functional
Vibrio vulnificus [3] = test: Antibacterial activity against Vibrio vulnificus MCCC E1758 assessed as cell growth inhibition measured after 24 hrs by resazurin dye based assay; assay type: functional
Vibrio anguillarum [4] = test: Antimicrobial activity against Vibrio anguillarum assessed as zone of inhibition per disk at 100 ug; assay type: functional; conditions: read-out: IZ
Vibrio anguillarum [5] = test: Antimicrobial activity against Vibrio anguillarum assessed as bacterial growth inhibition by well diffusion method; assay type: functional
Vibrio brasiliensis = test: Antimicrobial activity against Vibrio brasiliensis assessed as bacterial growth inhibition; assay type: functional
Vibrio mediterranei = test: Antimicrobial activity against Vibrio mediterranei assessed as bacterial growth inhibition; assay type: functional
Vibrio scophthalmi = test: Antimicrobial activity against Vibrio scophthalmi assessed as bacterial growth inhibition; assay type: functional
Vibrio parahaemolyticus [6] = test: Antibacterial activity against Vibrio parahaemolyticus assessed as bacterial growth inhibition by broth microdilution; assay type: functional
Vibrio vulnificus [7] = test: Antimicrobial activity against Vibrio vulnificus MCCC E1758 assessed as bacterial growth inhibition by resazurin dye based assay; assay type: functional
Vibrio vulnificus [8] = test: Antimicrobial activity against Vibrio vulnificus MCCC E333 assessed as bacterial growth inhibition by resazurin dye based assay; assay type: functional
Vibrio vulnificus [9] = test: Antibacterial activity against Vibrio vulnificus MCCC E1758 assessed as bacterial growth inhibition measured after 24 hrs by resazurin dye based assay; assay type: functional
Vibrio harveyi [10] = test: Antimicrobial activity against Vibrio harveyi BB120 assessed as bacterial growth reduction by bioluminescence based Quorum-Sensing assay; assay type: functional, organism-based
Vibrio parahaemolyticus [11] = test: Antimicrobial activity against Vibrio parahaemolyticus MTCC451 assessed as zone of inhibition in diameter per disc at 100 ug measured for 24 to 72 hrs; assay type: functional; conditions: time 24-72 hrs, read-out: IZ
Vibrio vulnificus [12] = test: Antimicrobial activity against Vibrio vulnificus MTCC1145 assessed as zone of inhibition in diameter per disc at 100 ug measured for 24 to 72 hrs; assay type: functional; conditions: time 24-72 hrs, read-out: IZ
Vibrio harveyi [13] = test: Antimicrobial activity against Vibrio harveyi assessed as bacterial growth inhibition; assay type: functional
Vibrio natriegens = test: Antimicrobial activity against Vibrio natriegens assessed as bacterial growth inhibition; assay type: functional
Vibrio proteolyticus = test: Antimicrobial activity against Vibrio proteolyticus assessed as bacterial growth inhibition; assay type: functional
Vibrio harveyi [14] = test: Antimicrobial activity against Vibrio harveyi QDIO-7 assessed as bacterial growth inhibition by microplate reader assay; assay type: functional
Vibrio vulnificus [15] = test: Antimicrobial activity against Vibrio vulnificus QDIO-7 assessed as bacterial growth inhibition by microplate reader assay; assay type: functional
Vibrio anguillarum [16] = test: Antimicrobial activity against Vibrio anguillarum assessed as zone of inhibition in diameter per disk at 50 ug; assay type: functional; conditions: read-out: IZ
Vibrio harveyi [17] = test: Antimicrobial activity against Vibrio harveyi assessed as zone of inhibition in diameter per disk at 50 ug; assay type: functional; conditions: read-out: IZ
Vibrio parahaemolyticus [18] = test: Antimicrobial activity against Vibrio parahaemolyticus assessed as zone of inhibition in diameter per disk at 50 ug; assay type: functional; conditions: read-out: IZ
Vibrio splendidus = test: Antimicrobial activity against Vibrio splendidus assessed as zone of inhibition in diameter per disk at 50 ug; assay type: functional; conditions: read-out: IZ
Vibrio alginolyticus [19] = test: Antibacterial activity against Vibrio alginolyticus assessed as zone of inhibition measured after 24 to 48 hrs by agar well diffusion assay; assay type: functional; conditions: time 24-48 hrs
Vibrio cholerae = test: Antibacterial activity against Vibrio cholerae assessed as zone of inhibition measured after 24 to 48 hrs by agar well diffusion assay; assay type: functional; conditions: time 24-48 hrs
Vibrio parahaemolyticus [20] = test: Antibacterial activity against Vibrio parahaemolyticus assessed as zone of inhibition measured after 24 to 48 hrs by agar well diffusion assay; assay type: functional; conditions: time 24-48 hrs
Vibrio sp. [21] = test: Antibacterial activity against Vibrio sp. assessed as bacterial growth inhibition by GC-MS analysis; assay type: functional
Vibrio alginolyticus [22] = test: Antimicrobial activity against Vibrio alginolyticus QDIO-7 assessed as bacterial growth inhibition by microtiter plate reader analysis; assay type: functional
Vibrio vulnificus [23] = test: Antimicrobial activity against Vibrio vulnificus QDIO-4 assessed as bacterial growth inhibition by microtiter plate reader analysis; assay type: functional
Vibrio campbellii [24] = test: Antimicrobial activity against Vibrio campbellii MCCC E333 assessed as bacterial growth inhibition by resazurin dye based assay; assay type: functional
Vibrio anguillarum [25] = test: Antimicrobial activity against Vibrio anguillarum QDIO-1 assessed as bacterial growth inhibition; assay type: functional
Vibrio alginolyticus [26] = test: Antibacterial activity against Vibrio alginolyticus assessed as bacterial growth inhibition; assay type: functional
Vibrio rotiferianus [27] = test: Antibacterial activity against Vibrio rotiferianus MCCC E385 assessed as bacterial growth inhibition measured after 24 hrs by resazurin dye based assay; assay type: functional
Vibrio parahaemolyticus [28] = test: Antimicrobial activity against Vibrio parahaemolyticus assessed as bacterial growth inhibition by MTT assay; assay type: functional
Vibrio vulnificus [29] = test: Antimicrobial activity against Vibrio vulnificus assessed as bacterial growth inhibition by MTT assay; assay type: functional
Vibrio sp. [30] = test: Antibacterial activity against Vibrio sp. assessed as bacterial growth inhibition relative to control; assay type: functional
Vibrio harveyi [31] = test: Antimicrobial activity against Vibrio harveyi assessed as bacterial growth inhibition by two fold dilution assay; assay type: functional

COc1cc2oc3c(OC)c(-c4ccc(O)c(CC=C(C)C)c4)cc(OC)c3c2cc1O gave an MIC (Vibrio rotiferianus [1]) of 7.75 µg/mL (≈ 17.8 µM), an MIC (Vibrio campbellii [2]) of 15.6 µg/mL (≈ 35.9 µM) and an MIC (Vibrio vulnificus [3]) of 7.77 µg/mL (≈ 17.9 µM).

In the case of COc1cc(O)c2c(=O)oc3cc(O)cc(C)c3c2c1, the zone of inhibition at 100 µg/disc (Vibrio anguillarum [4]) is reported as 9 mm.

C=C(C)[C@H]1O[C@H]2CC[C@@]3(C)[C@@](O)(CC[C@@]4(O)[C@@H]5OC(C)(C)[C@H]6C[C@@H]7C(=C)Cc8c(Cl)cc9[nH]c(c5c9c8[C@@]76O)[C@]34C)[C@]23O[C@@H]3[C@H]1O gave an MIC (Vibrio anguillarum [5]) of 16 µg/mL (≈ 24.6 µM).

CC(C)[C@@H](C)/C=C/[C@@H](C)[C@H]1CC[C@@H]2[C@]1(C)CCC1[C@@]23OO[C@]2(C=C3O)C[C@@H](O)CC[C@]12C (stereo partly specified) gave an MIC (Vibrio brasiliensis) of 32 µg/mL (≈ 72 µM) and an MIC (Vibrio mediterranei) of 8 µg/mL (≈ 18 µM).

Compound C=C(C(C)C)[C@H](C[C@@H](C)[C@H]1CC[C@H]2[C@@H]3C(=O)C=C4C[C@@H](O)CC[C@]4(C)[C@H]3CC[C@]12C)OC(C)=O has an MIC (Vibrio brasiliensis) of 9 µg/mL (≈ 19.1 µM), an MIC (Vibrio scophthalmi) of 8 µg/mL (≈ 17 µM) and an MIC (Vibrio mediterranei) of 8 µg/mL (≈ 17 µM).

COC(=O)[C@@H](C)CCc1cc(O)c(C)cc1O gave an MIC (Vibrio parahaemolyticus [6]) of 12.5 µg/mL (≈ 52.5 µM).

Work on Cc1c(O)c(C)c2c(c1O)C(=O)O[C@](C)(O)[C@H]2C yielded an MIC (Vibrio vulnificus [7]) of 16.6 µg/mL (≈ 65.8 µM) and an MIC (Vibrio vulnificus [8]) of 15.3 µg/mL (≈ 60.7 µM).

CC[C@H](C)/C=C/C1=CC2=C(Cl)C(=O)[C@@]3(C)OC(=O)C(C(=O)[C@@H](C)[C@@H](C)O)=C3C2=CN1CCOCCO was tested, and the MIC (Vibrio vulnificus [9]) was 7.4 µg/mL (≈ 14.2 µM).

Compound CC(C)CC(=O)NCCc1ccccc1 has an EC50 (Vibrio harveyi [10]) of 9 µg/mL (≈ 43.8 µM).

CC[C@@H](O)/C=C/CC(=O)O[C@@H]1/C=C/C=C\C[C@H](O)C[C@@H](O)/C=C/C=C\CCC[C@@H](C)OC(=O)/C=C\C=C\C1 showed a zone of inhibition at 100 µg/disc (Vibrio parahaemolyticus [11]) of 16 mm and a zone of inhibition at 100 µg/disc (Vibrio vulnificus [12]) of 14.3 mm.

C=CC(C)(C)C1(CC2NC(=O)c3ccccc3N(C)C2=O)C(=O)N(O)c2ccccc21 (stereo unspecified) gave an MIC (Vibrio harveyi [13]) of 1 µg/mL (≈ 2.38 µM), an MIC (Vibrio natriegens) of 1 µg/mL (≈ 2.38 µM) and an MIC (Vibrio proteolyticus) of 0.1 µg/mL (≈ 0.238 µM).

Compound COC(=O)CCc1oc2cc(O)cc(C)c2c1-c1cc(O)c(C)c(O)c1C has an MIC (Vibrio harveyi [14]) of 32 µg/mL and an MIC (Vibrio vulnificus [15]) of 64 µg/mL.

Cc1cc(O)cc(O)c1-c1cc2cc(O)cc(O)c2c(=O)o1 was tested, and the zone of inhibition at 50 µg/disc (Vibrio anguillarum [16]) was 7 mm, the zone of inhibition at 50 µg/disc (Vibrio harveyi [17]) was 7 mm and the zone of inhibition at 50 µg/disc (Vibrio parahaemolyticus [18]) was 7 mm. It also gave a zone of inhibition at 50 µg/disc (Vibrio splendidus) of 7 mm.

For CCCCCCCCCCCCC(=O)NCCC(C)C, the “inhibition zone (IZ)” value (Vibrio alginolyticus [19]) was 16.3 mm, the “inhibition zone (IZ)” value (Vibrio cholerae) was 13.7 mm and the “inhibition zone (IZ)” value (Vibrio parahaemolyticus [20]) was 9.66 mm.

For O=C1CCC2(CCC(=O)N2)N1, the MIC (Vibrio sp. [21]) was no more than 0.78 µg/mL.

CC(=O)OC/C=C\c1ccc(O)cc1CO gave an MIC (Vibrio alginolyticus [22]) of 8 µg/mL and an MIC (Vibrio vulnificus [23]) of 8 µg/mL.

Cc1c(O)cc(O)cc1[C@H](C)[C@@H](C)OC=O gave an MIC (Vibrio vulnificus [7]) of 15.7 µg/mL (≈ 70 µM) and an MIC (Vibrio campbellii [24]) of 15.6 µg/mL (≈ 69.6 µM).

For CC(C)[C@@H](C)/C=C/[C@@H](C)[C@H]1CC[C@@H]2[C@]1(C)CC[C@H]1[C@]23O[C@H]3C(=O)C2=CC(=O)CC[C@@]21C, the MIC (Vibrio anguillarum [25]) was 32 µg/mL (≈ 75.4 µM).

With CCCCCCC(O)CCCCCC/C=C/C(O)C1C=C(NC(C)=O)C(=O)O1 (stereo unspecified) the MIC (Vibrio alginolyticus [26]) was 8 µg/mL (≈ 20.2 µM).

Work on CC[C@H](C)/C=C/C1=CC2=C(Cl)C(=O)[C@@]3(C)OC(=O)C(C(=O)[C@@H](C)[C@@H](C)O)=C3C2=CN1NC(=O)c1ccc(O)cc1 yielded an MIC (Vibrio rotiferianus [27]) of 7.3 µg/mL (≈ 12.9 µM).

CC(=O)c1ccccc1C[C@@H](O)/C=C/CC(=O)O[C@@H]1/C=C/C=C\C[C@H](O)C[C@@H](O)/C=C/C=C/CCC[C@@H](C)OC(=O)/C=C\C=C\C1 was tested, and the MIC (Vibrio parahaemolyticus [28]) was 3.12 µg/mL (≈ 4.93 µM) and the MIC (Vibrio vulnificus [29]) was 3.12 µg/mL (≈ 4.93 µM).

With COc1cc(-c2ccc(O)cc2)c(OC)c(O)c1-c1ccc(O)cc1 [TERPHENYLLIN] the “inhibition (INH)” value (Vibrio sp. [30]) was greater than 80%.

COC(=O)C1=CC(=O)C=C(OC)C12Oc1cc(C)cc(OC)c1C2=O (stereo unspecified) [TRYPACIDIN] showed an MIC (Vibrio harveyi [31]) of 31.2 µg/mL (≈ 90.6 µM).
